Paper PMC3834177 (Cancer Chemotherapy and Pharmacology, 2013)
Where two headings read alike, the source gives them in different places. Marks after values point to notes of the source that are not given here.

Experiments:
[1] = Midostaurin PK when administered with rifampicin; settings: for AUC(0-t) / Cmax / half-life / Tmax: human, plasma, oral, n = 20; for AUC(0-t): AUC0–last; for AUC(0-t) / Cmax: adjusted geometric mean; for Cmax: C max; for half-life: t 1/2, adjusted geometric mean; for Tmax: t max, median
Procedure: These endogenous molecules served as exploratory biomarkers for CYP3A4 activity in vivo [21, 22].
A point estimate and the corresponding 90 % CI for the treatment effect (test vs reference) were calculated. These were anti-logged to obtain the GMR and respective 90 % CI. […] The median difference was estimated with the Hodges–Lehmann estimator and its respective exact two-sided 90 % CI. All formal comparative statistical analyses were performed using SAS software.
(§1) The concentration of ketoconazole in plasma was assessed using a validated LC–MS/MS assay with an LLOQ of 50.0 ng/mL (WuXi Pharmatech Co, Ltd, China). The concentration of rifampicin in plasma was measured using a validated LC–MS/MS assay with an LLOQ of 5.0 ng/mL (SGS, Cephac Europe, SAS). Plasma concentrations of midazolam and its metabolite 1′-hydroxymidazolam, which is generated by CYP3A4 and CYP3A5 in humans, were measured using a validated LC–MS/MS assay with an LLOQ of ≈0.100 ng/mL (SGS, Cephac Europe, SAS). The plasma concentration of 4β-hydroxycholesterol was measured using a validated LC–MS/MS assay with an LLOQ of 3.0 ng/mL (SGS, Cephac Europe, SAS). The concentrations of 6β-hydroxycortisol and cortisol in urine were determined using validated LC–MS/MS assays with an LLOQ of 10.0 ng/mL for 6β-hydroxycortisol and 1.0 ng/mL for cortisol. The ratio of 6β-hydroxycortisol to cortisol was subsequently calculated (SGS, Cephac Europe, SAS). See Supplementary Table 2 for detailed bioanalytical methods for all 3 studies.

[2] = Midostaurin PK when administered with ketoconazole; settings: for Cmax / Tmax: human, plasma, oral, n = 18; for Cmax: C max, adjusted geometric mean; for Tmax: t max, median
Procedure: According to the US Food and Drug Administration, ketoconazole 400 mg once daily is the recommended dose to evaluate DDIs involving CYP3A4 inhibition. [drawing 1]
Adverse events (AEs) were recorded during the study and up to 1 month (28 days) after the end of study. Volunteers remained at the clinic until AEs were common toxicity criteria (CTC) grade ≤1.
A point estimate and the corresponding 90 % CI for the treatment effect were calculated for the test treatment compared with the reference. These were anti-logged to obtain the point estimate and the 90 % CI for the geometric mean ratio (GMR) on the untransformed scale. […] All ANOVAs were performed using SAS software (SAS Institute Inc., Cary, NC, USA).
as §1

CYP3A4/5 = settings: in vitro; read-out: IC50, CYP3A4/5 activity (midazolam 1′-hydroxylation); cited from earlier work
[3] = system: human serum protein α1-acid glycoprotein (AAG); parameters: method as in PMID 11230495; settings: cited from earlier work
mutant FLT3 = settings: in vitro; read-out: half-maximal inhibitory concentration (IC50), mutant FLT3; cited from earlier work
[4] = cited from earlier work
[5] = Midazolam PK when administered with midostaurin; settings: for change in AUCinf: day 3 (co-administration of midostaurin) vs day 1; for AUC0–inf, adjusted geometric mean / AUC0–last, adjusted geometric mean / C max, adjusted geometric mean / t max, median / AUC(0-inf) / AUC(0-t) / Cmax: n = 18; for AUC(0-inf): AUC0–inf; for AUC(0-inf) / AUC(0-t) / Cmax: adjusted geometric mean; for AUC(0-t): AUC0–last; for Cmax: C max
Description: (§2) Both inhibition and induction of midazolam clearance were investigated.
Similarly, blood and urine samples were taken on days 1, 3, 6, 7, 8, and 9 to measure the levels of 4β-hydroxycholesterol in plasma and the 6β-hydroxycortisol/cortisol ratio in urine, markers of CYP3A4 activity.
The PK parameters of midazolam and its metabolites (C max, t max, AUC0–last, AUCinf, and t 1/2) were derived using a noncompartmental method with the aid of WinNonLin 5.2. […] Following log transformation, the primary PK parameters were analyzed using a linear, mixed-effects model using the term of treatment as a fixed factor (reference, test 1, test 2) and subject as a random factor. A point estimate and the corresponding 90 % CI for the difference in test 1 versus reference and the difference in test 2 versus reference were derived from the respective contrasts of the model estimates and anti-logged to obtain the GMR and respective 90 % CI.
as §1

[6] = Safety and tolerability, midazolam study
Description: as §2

[7] = Placebo + midostaurin arm, rifampicin study
[8] = Placebo + midostaurin arm, ketoconazole study
[9] = day 3 (co-administration of midostaurin) vs midazolam alone day 1
[10] = day 8 (after repeated doses of midostaurin) vs day 1
[11] = plasma, Midazolam + midostaurin (day 3)
[12] = human, plasma, oral, 4 mg, plasma, Midazolam (day 1)
[13] = human, plasma, oral, 4 mg, plasma, Midazolam (day 8)
[14] = human, plasma, oral, plasma, Midazolam + midostaurin (day 3)
[15] = midazolam study: MZ 4 mg (day 1), MZ 4 mg + Mido 100 mg (day 3), Mido 50 mg twice daily (days 4–6)
[16] = midazolam study: second MZ 4 mg alone (day 8, after Mido)

CO[C@@H]1[C@H](N(C)C(=O)c2ccccc2)C[C@H]2O[C@]1(C)n1c3ccccc3c3c4c(c5c6ccccc6n2c5c31)C(=O)NC4O (mixture of isomers) [CGP52421]
decrease in exposure (AUClast) in midostaurin + rifampicin arm ([1]; compared with midostaurin alone): 2.45 fold
AUC(0-t) [1, 7]: 14600 ng·h/mL
AUC(0-t) ([1]; Rifampicin + midostaurin arm): 5960 ng·h/mL
Cmax [1, 7]: 196 ng/mL
Cmax ([1]; Rifampicin + midostaurin arm): 128 ng/mL
half-life [1, 7]: 175 h
half-life ([1]; Rifampicin + midostaurin arm): 87.1 h
Tmax [1, 7]: 3 h
Tmax ([1]; Rifampicin + midostaurin arm): 2.51 h
median t max prolonged in midostaurin + placebo arm compared with midostaurin + rifampicin arm ([1]; in vivo): 1.2 fold
Cmax ([2]; Ketoconazole + midostaurin arm): 70.9 ng/mL
Cmax [2, 8]: 145 ng/mL
Tmax ([2]; Ketoconazole + midostaurin arm): 120 h
Tmax [2, 8]: 2 h
t max, Hodges–Lehmann estimate of median difference (90 % distribution-free CI) ([2]; ketoconazole + midostaurin vs placebo + midostaurin): 116.7 (93.9, 117.9) h
IC50 (CYP3A4/5): 1500 nM
bound to AAG [3]: 88–98%
IC50 (mutant FLT3): 584 nM
apparent elimination half-life (t 1/2) [4]: 384 to 744 h
half-life [4]: > 1 month
major pathway for elimination [4]: Fecal excretion

OCc1ncc2n1-c1ccc(Cl)cc1C(c1ccccc1F)=NC2 [1′-Hydroxymidazolam]
change in AUCinf [5]: No change
average decrease in C max [5, 9]: 1.2 fold
t max, Hodges–Lehmann estimate of median difference (90 % distribution-free CI) ([5]; day 3/day 1 comparison): 0.13 (−0.50 to 1.50)^b h
average decrease in AUCinf [5, 10]: 1.3 fold
average decrease in C max [5, 10]: 1.3 fold
t max, Hodges–Lehmann estimate of median difference (90 % distribution-free CI) ([5]; day 8/day 1 comparison): 0.01 (−0.23 to 0.26)^c h
AUC0–inf, adjusted geometric mean ([5]; plasma, Midazolam (day 1), midazolam 4 mg alone): 18.18 ng·h/mL
AUC0–last, adjusted geometric mean ([5]; plasma, Midazolam (day 1)): 15.91 ng·h/mL
C max, adjusted geometric mean ([5]; plasma, Midazolam (day 1)): 5.83 ng/mL
t max, median ([5]; plasma, Midazolam (day 1)): 0.50 h
AUC0–inf, adjusted geometric mean ([5]; plasma, Midazolam (day 8), midazolam 4 mg alone after repeated midostaurin): 13.74 ng·h/mL
AUC0–last, adjusted geometric mean ([5]; plasma, Midazolam (day 8)): 12.57 ng·h/mL
C max, adjusted geometric mean ([5]; plasma, Midazolam (day 8)): 4.37 ng/mL
t max, median ([5]; plasma, Midazolam (day 8)): 0.50 h
AUC0–inf, adjusted geometric mean ([5]; plasma, Midazolam + midostaurin (day 3), midazolam 4 mg + midostaurin 100 mg): 18.54 ng·h/mL
AUC0–last, adjusted geometric mean [5, 11]: 15.87 ng·h/mL
C max, adjusted geometric mean [5, 11]: 4.76 ng/mL

Cc1ncc2n1-c1ccc(Cl)cc1C(c1ccccc1F)=NC2 [Midazolam]
change in AUCinf [5]: No change
average decrease in C max [5, 9]: 1.2 fold
average decrease in AUCinf [5, 10]: 1.1 fold
average decrease in C max [5, 10]: 1.1 fold
t max, Hodges–Lehmann estimate of median difference (90 % distribution-free CI) ([5]; day 8/day 1 comparison): 0.12 (−0.12 to 0.26)^c h
Tmax ([5]; human, plasma, oral, 4 mg): 0.5 h
AUC(0-inf) ([5]; human, plasma, oral, 4 mg, plasma, Midazolam (day 1), midazolam 4 mg alone): 49.7 ng·h/mL
AUC(0-inf) ([5]; human, plasma, oral, 4 mg, plasma, Midazolam (day 8), midazolam 4 mg alone after repeated midostaurin): 47 ng·h/mL
AUC(0-t) [5, 12]: 43.1 ng·h/mL
AUC(0-t) [5, 13]: 40.8 ng·h/mL
Cmax [5, 12]: 13.5 ng/mL
Cmax [5, 13]: 12.2 ng/mL
AUC(0-inf) ([5]; human, plasma, oral, plasma, Midazolam + midostaurin (day 3), midazolam 4 mg + midostaurin 100 mg): 49.6 ng·h/mL
AUC(0-t) [5, 14]: 40.2 ng·h/mL
Cmax [5, 14]: 11 ng/mL
t max, median ([5]; plasma, Midazolam (day 8)): 0.50 h
Adverse event: Abdominal distension [6, 15]: 0 n (%)
Adverse event: Any preferred term [6, 15]: 3 (15.0) n (%)
Adverse event: Back pain [6, 15]: 0 n (%)
Adverse event: Chromaturia [6, 15]: 0 n (%)
Adverse event: Cough [6, 15]: 0 n (%)
Adverse event: Diarrhea [6, 15]: 0 n (%)
Adverse event: Discolored feces [6, 15]: 0 n (%)
Adverse event: Dizziness [6, 15]: 0 n (%)
Adverse event: Dry skin [6, 15]: 0 n (%)
Adverse event: Dyspepsia [6, 15]: 0 n (%)
Adverse event: Feeling cold [6, 15]: 0 n (%)
Adverse event: Feeling hot [6, 15]: 0 n (%)
Adverse event: Flatulence [6, 15]: 0 n (%)
Adverse event: Headache [6, 15]: 2 (10.0) n (%)
Adverse event: Hot flush [6, 15]: 0 n (%)
Adverse event: Nasopharyngitis [6, 15]: 0 n (%)
Adverse event: Nausea [6, 15]: 0 n (%)
Adverse event: Palpitations [6, 15]: 0 n (%)
Adverse event: Pharyngolaryngeal pain [6, 15]: 0 n (%)
Adverse event: Restlessness [6, 15]: 0 n (%)
Adverse event: Rhinitis [6, 15]: 0 n (%)
Adverse event: Sleep disorder [6, 15]: 0 n (%)
Adverse event: Somnolence [6, 15]: 1 (5.0) n (%)
Adverse event: Vomiting [6, 15]: 0 n (%)
Adverse event: Abdominal distension [6, 16]: 0 n (%)
Adverse event: Any preferred term [6, 16]: 3 (16.7) n (%)
Adverse event: Back pain [6, 16]: 0 n (%)
Adverse event: Chromaturia [6, 16]: 0 n (%)
Adverse event: Cough [6, 16]: 0 n (%)
Adverse event: Diarrhea [6, 16]: 0 n (%)
Adverse event: Discolored feces [6, 16]: 0 n (%)
Adverse event: Dizziness [6, 16]: 0 n (%)
Adverse event: Dry skin [6, 16]: 0 n (%)
Adverse event: Dyspepsia [6, 16]: 0 n (%)
Adverse event: Feeling cold [6, 16]: 0 n (%)
Adverse event: Feeling hot [6, 16]: 0 n (%)
Adverse event: Flatulence [6, 16]: 0 n (%)
Adverse event: Headache [6, 16]: 2 (11.1) n (%)
Adverse event: Hot flush [6, 16]: 0 n (%)
Adverse event: Nasopharyngitis [6, 16]: 1 (5.6) n (%)
Adverse event: Nausea [6, 16]: 0 n (%)
Adverse event: Palpitations [6, 16]: 0 n (%)
Adverse event: Pharyngolaryngeal pain [6, 16]: 0 n (%)
Adverse event: Restlessness [6, 16]: 0 n (%)
Adverse event: Rhinitis [6, 16]: 0 n (%)
Adverse event: Sleep disorder [6, 16]: 0 n (%)
Adverse event: Somnolence [6, 16]: 0 n (%)
Adverse event: Vomiting [6, 16]: 0 n (%)
